Experimental data as given in publication PMC12935787, “Clinical pharmacokinetics and pharmacometabolomics of Andrographis paniculata capsules: Bridging drug disposition and metabolic response to precision medicine” (Naunyn-Schmiedeberg's Archives of Pharmacology, 2025).

System: Human metabolic pathways (KEGG)
Assay: Urine pharmacometabolomics, peaks-to-pathway mummichog analysis
Format: in vivo, human (healthy volunteers)
Details: urinary PMx analysis, 1000 mg and 2000 mg AP (either dose)
Procedure: The protocol was published (Tee et al. [2022]).
Plasma samples (blank and subject) were thawed from −80 °C and processed using cold protein precipitation (200 μL plasma + 600 μL acetone:acetonitrile:methanol [1:1:1]). After −20 °C incubation (1 h) and centrifugation (10,000 rpm, 4 °C, 10 min), supernatants were filtered (0.22 μm) into LC–MS vials. System suitability test using vendor-provided internal standards ensured instrument performance parameters met acceptance criteria prior to metabolomics analysis. Samples (plasma and urine) were prepared in four batches. Each batch was analyzed separately in positive and negative ionization modes using a global metabolomics approach, resulting in eight analytical batches. Each analytical batch commenced with blank water, blank water spiked with internal standard (IS), and blank plasma or urine (with and without IS), all meeting the acceptance criteria in Figure S6 and Figure S7. Five pooled quality control (PQC) samples were analyzed at batch start, with additional PQCs interspersed after every fourth subject sample to monitor LC–MS system stability. Chromatogram overlays of all PQCs for every batch were assessed for consistency and instrument stability. Overlays of PQCs with subject samples were also evaluated in Figure S8. All eight batches met predefined acceptance criteria prior to data processing.
Dose-dependent PMx analyses compared pre-dose (T0) with post-dose time points (T2.5, T3, T3.5) for plasma and pre-dose (U0) with post-dose intervals (0–4 h [U1], 4–8 h [U2], 8–12 h [U3]) for urine, using positive and negative ion mode acquisition.
PCA results for pre- and post-dose urine samples were obtained by performing similar statistical and multivariate analyses of metabolite data (Figure S5). Batch effects were not observed in the normalized datasets for both positive and negative modes at either dose. All urine samples were successfully analyzed, except for samples U13 and U14 for the 1000 mg AP dose in positive mode, which were not captured due to a power supply issue with the LC–MS during the analysis.

Row | free compound detected in urine | SMILES
1 | detected no free | C=C1CC[C@@H]2[C@](C)(CO)[C@H](O)CC[C@@]2(C)[C@@H]1CCC1=CCOC1=O [14-deoxyandrographolide]
2 | detected no free | C=C1CC[C@@H]2[C@](C)(CO[C@@H]3O[C@H](CO)[C@@H](O)[C@H](O)[C@H]3O)CCC[C@@]2(C)[C@@H]1CCC1=CCOC1=O [neoandrographolide]
3 | detected no free | C=C1CC[C@@H]2[C@](C)(CO)[C@H](O)CC[C@@]2(C)[C@@H]1C/C=C1/C(=O)OC[C@H]1O [andrographolide]
